Laboratory results: patent US10183022B2, “Pharmaceutical composition for treating ulcerative colitis” (EA Pharma Co., Ltd., priority 2014, dated 2019)

Legend:
[1] = system: ulcerative colitis patients in an active stage; assay: Clinical study, 960 mg orally 3 times a day for 8 weeks: subscore for bloody stool of Mayo score, bloody-stool disappearance rate; type: in vivo, human; set-up: Cases by subscore for bloody stool, figure in parentheses: unit not given here
Experimental: (§1) The compound of Example 1 or the compound of Comparative Example 1 was orally administered after meals 3 times a day. The number of the given tablets was 8 per administration (i.e., the amount of the compound (1) of Example 1 administered was 960 mg per administration). The administration period was 8 weeks. The compounds were administered until the timing after the breakfast on the day before the assessment day at Week 8.
(2) Bloody Stool [Investigation Timings: Weeks 0, 2, 4, and 8 (or Discontinuation Time)]
Based on the contents described in the symptom-recording diaries, the investigators or sub-investigators investigated the states of bloody stool in 3 days immediately before each assessment day. Note that when the endoscopic examination on the large intestine was conducted, the investigation days were set to be the closest three days excluding the day of the endoscopic examination on the large intestine, the following day, and if a pre-treatment was performed for the endoscopic examination on the large intestine, the pre-treatment day.
The bloody stool state on the most severe day among the investigated three days was scored according to the following criteria.

[2] = system: ulcerative colitis patients in an active stage; assay: Clinical study, 960 mg orally 3 times a day for 8 weeks: subscore for mucosal finding (large intestine endoscopic examination), mucosal remission rate; type: in vivo, human; set-up: Cases by subscore for mucosal finding, figure in parentheses: unit not given here
Experimental: as §1
(3) Mucosal Finding (Large Intestine Endoscopic Examination) [Investigation Timings: Weeks 0 and 8 (or Discontinuation Time)]
The investigators or sub-investigators conducted the endoscopic examination on the large intestine, and checked the state of the large intestinal mucosa.
The endoscopic examination was conducted during a time from 7 days before Week 8 (or discontinuation time) until a medical interview at Week 8 (or discontinuation time). Note that the endoscopic examination on the large intestine at Week 8 (or discontinuation time) was conducted by the same physician at Week 0 when the situation allowed.
The assessment at the site served as the “subscore for mucosal finding” of the Mayo score. At Week 8 (or discontinuation time) also, the same site as that at Week 0 was assessed as the “subscore for mucosal finding” of the Mayo score.
A mucosal remission rate is a proportion of subjects each having a Mayo score with a subscore for mucosal finding of 1 point or less.

## COC(=O)[C@H](Cc1ccc(-n2c(=O)c3cc(N(C)C)ccc3n(C)c2=O)cc1)NC(=O)c1c(Cl)cccc1Cl [Example 1, methyl(2S)-2-(2,6-dichlorobenzamide)-3-{4-[6-(dimethylamino)-1-methyl-2,4-dioxo-1,4-dihydroquinazolin-3(2H)-yl]phenyl}propanoate]
[1]; Week 0, score 1
  Cases by subscore for bloody stool, figure in parentheses: 45.1
  Number of cases by subscore for bloody stool: 23
[1]; Week 0, score 2
  Cases by subscore for bloody stool, figure in parentheses: 47.1
  Number of cases by subscore for bloody stool: 24
[1]; Week 0, score 3
  Cases by subscore for bloody stool, figure in parentheses: 7.8
  Number of cases by subscore for bloody stool: 4
[1]; Week 2, score 0
  Cases by subscore for bloody stool, figure in parentheses: 9.8
  Number of cases by subscore for bloody stool: 5
[1]; Week 2, score 1
  Cases by subscore for bloody stool, figure in parentheses: 54.9
  Number of cases by subscore for bloody stool: 28
[1]; Week 2, score 2
  Cases by subscore for bloody stool, figure in parentheses: 33.3
  Number of cases by subscore for bloody stool: 17
[1]; Week 2, score 3
  Cases by subscore for bloody stool, figure in parentheses: 2.0
  Number of cases by subscore for bloody stool: 1
[1]; Week 2 score 0, Week 0 score 1
  Number of cases, cross tabulation of subscore for bloody stool: 2
[1]; Week 2 score 0, Week 0 score 2
  Number of cases, cross tabulation of subscore for bloody stool: 2
[1]; Week 2 score 0, Week 0 score 3
  Number of cases, cross tabulation of subscore for bloody stool: 1
[1]; Week 2 score 1, Week 0 score 1
  Number of cases, cross tabulation of subscore for bloody stool: 18
[1]; Week 2 score 1, Week 0 score 2
  Number of cases, cross tabulation of subscore for bloody stool: 8
[1]; Week 2 score 1, Week 0 score 3
  Number of cases, cross tabulation of subscore for bloody stool: 2
[1]; Week 2 score 2, Week 0 score 1
  Number of cases, cross tabulation of subscore for bloody stool: 3
[1]; Week 2 score 2, Week 0 score 2
  Number of cases, cross tabulation of subscore for bloody stool: 14
[1]; Week 2 score 2, Week 0 score 3
  Number of cases, cross tabulation of subscore for bloody stool: 0
[1]; Week 2 score 3, Week 0 score 1
  Number of cases, cross tabulation of subscore for bloody stool: 0
[1]; Week 2 score 3, Week 0 score 2
  Number of cases, cross tabulation of subscore for bloody stool: 0
[1]; Week 2 score 3, Week 0 score 3
  Number of cases, cross tabulation of subscore for bloody stool: 1
[1]; Week 4, score 0
  Cases by subscore for bloody stool, figure in parentheses: 35.3
  Number of cases by subscore for bloody stool: 18
[1]; Week 4, score 1
  Cases by subscore for bloody stool, figure in parentheses: 43.1
  Number of cases by subscore for bloody stool: 22
[1]; Week 4, score 2
  Cases by subscore for bloody stool, figure in parentheses: 19.6
  Number of cases by subscore for bloody stool: 10
[1]; Week 4, score 3
  Cases by subscore for bloody stool, figure in parentheses: 2.0
  Number of cases by subscore for bloody stool: 1
[1]; Week 4 score 0, Week 0 score 1
  Number of cases, cross tabulation of subscore for bloody stool: 9
[1]; Week 4 score 0, Week 0 score 2
  Number of cases, cross tabulation of subscore for bloody stool: 8
[1]; Week 4 score 0, Week 0 score 3
  Number of cases, cross tabulation of subscore for bloody stool: 1
[1]; Week 4 score 1, Week 0 score 1
  Number of cases, cross tabulation of subscore for bloody stool: 12
[1]; Week 4 score 1, Week 0 score 2
  Number of cases, cross tabulation of subscore for bloody stool: 9
[1]; Week 4 score 1, Week 0 score 3
  Number of cases, cross tabulation of subscore for bloody stool: 1
[1]; Week 4 score 2, Week 0 score 1
  Number of cases, cross tabulation of subscore for bloody stool: 2
[1]; Week 4 score 2, Week 0 score 2
  Number of cases, cross tabulation of subscore for bloody stool: 7
[1]; Week 4 score 2, Week 0 score 3
  Number of cases, cross tabulation of subscore for bloody stool: 1
[1]; Week 4 score 3, Week 0 score 1
  Number of cases, cross tabulation of subscore for bloody stool: 0
[1]; Week 4 score 3, Week 0 score 2
  Number of cases, cross tabulation of subscore for bloody stool: 0
[1]; Week 4 score 3, Week 0 score 3
  Number of cases, cross tabulation of subscore for bloody stool: 1
[1]; Week 8
  Difference in bloody-stool disappearance rates, Example 1 vs Comparative Example 1 (placebo): 29.4%
[1]; Week 8, 51 cases analyzed
  Bloody-stool disappearing cases: 25
[1]; Week 8, all subjects
  Bloody-stool disappearance rate: 49.0%
[1]; Week 8, score 0
  Cases by subscore for bloody stool, figure in parentheses: 49.0
  Number of cases by subscore for bloody stool: 25
[1]; Week 8, score 1
  Cases by subscore for bloody stool, figure in parentheses: 37.3
  Number of cases by subscore for bloody stool: 19
[1]; Week 8, score 2
  Cases by subscore for bloody stool, figure in parentheses: 11.8
  Number of cases by subscore for bloody stool: 6
[1]; Week 8, score 3
  Cases by subscore for bloody stool, figure in parentheses: 2.0
  Number of cases by subscore for bloody stool: 1
[1]; Week 8 score 0, Week 0 score 1
  Number of cases, cross tabulation of subscore for bloody stool: 13
[1]; Week 8 score 0, Week 0 score 2
  Number of cases, cross tabulation of subscore for bloody stool: 9
[1]; Week 8 score 0, Week 0 score 3
  Number of cases, cross tabulation of subscore for bloody stool: 3
[1]; Week 8 score 1, Week 0 score 1
  Number of cases, cross tabulation of subscore for bloody stool: 8
[1]; Week 8 score 1, Week 0 score 2
  Number of cases, cross tabulation of subscore for bloody stool: 11
[1]; Week 8 score 1, Week 0 score 3
  Number of cases, cross tabulation of subscore for bloody stool: 0
[1]; Week 8 score 2, Week 0 score 1
  Number of cases, cross tabulation of subscore for bloody stool: 2
[1]; Week 8 score 2, Week 0 score 2
  Number of cases, cross tabulation of subscore for bloody stool: 4
[1]; Week 8 score 2, Week 0 score 3
  Number of cases, cross tabulation of subscore for bloody stool: 0
[1]; Week 8 score 3, Week 0 score 1
  Number of cases, cross tabulation of subscore for bloody stool: 0
[1]; Week 8 score 3, Week 0 score 2
  Number of cases, cross tabulation of subscore for bloody stool: 0
[1]; Week 8 score 3, Week 0 score 3
  Number of cases, cross tabulation of subscore for bloody stool: 1
[2]; Week 0, score 2
  Cases by subscore for mucosal finding, figure in parentheses: 88.2
  Number of cases by subscore for mucosal finding: 45
[2]; Week 0, score 3
  Cases by subscore for mucosal finding, figure in parentheses: 11.8
  Number of cases by subscore for mucosal finding: 6
[2]; Week 8
  Difference in mucosal remission rates, Example 1 vs Comparative Example 1 (placebo): 29.4%
[2]; Week 8, 51 cases analyzed
  Mucosal remission cases: 30
[2]; Week 8, all subjects
  Mucosal remission rate: 58.8%
[2]; Week 8, score 0
  Cases by subscore for mucosal finding, figure in parentheses: 17.0
  Number of cases by subscore for mucosal finding: 8
[2]; Week 8, score 1
  Cases by subscore for mucosal finding, figure in parentheses: 46.8
  Number of cases by subscore for mucosal finding: 22
[2]; Week 8, score 2
  Cases by subscore for mucosal finding, figure in parentheses: 34.0
  Number of cases by subscore for mucosal finding: 16
[2]; Week 8, score 3
  Cases by subscore for mucosal finding, figure in parentheses: 2.1
  Number of cases by subscore for mucosal finding: 1
[2]; Week 8 score 0, Week 0 score 2
  Number of cases, cross tabulation of subscore for mucosal finding: 7
[2]; Week 8 score 0, Week 0 score 3
  Number of cases, cross tabulation of subscore for mucosal finding: 1
[2]; Week 8 score 1, Week 0 score 2
  Number of cases, cross tabulation of subscore for mucosal finding: 22
[2]; Week 8 score 1, Week 0 score 3
  Number of cases, cross tabulation of subscore for mucosal finding: 0
[2]; Week 8 score 2, Week 0 score 2
  Number of cases, cross tabulation of subscore for mucosal finding: 13
[2]; Week 8 score 2, Week 0 score 3
  Number of cases, cross tabulation of subscore for mucosal finding: 3
[2]; Week 8 score 3, Week 0 score 2
  Number of cases, cross tabulation of subscore for mucosal finding: 0
[2]; Week 8 score 3, Week 0 score 3
  Number of cases, cross tabulation of subscore for mucosal finding: 1
[2]; body weight 50 kg or more and disease period less than 5 years (16/22 cases)
  Mucosal remission rate: 72.7%
